{
  "source": "paper PMC10967270",
  "about": "“Intrapulmonary and Systemic Pharmacokinetics of Colistin Following Nebulization of Low-Dose Colistimethate Sodium in Patients with Ventilator-Associated Pneumonia Caused by Carbapenem-Resistant Acinetobacter baumannii” (Antibiotics, 2024)",
  "key": {"[1]": {"assay": "Colistin concentration in epithelial lining fluid (BALF, urea-corrected) after CMS nebulization", "assay_type": "in vivo, human", "method": "Patients were treated with CMS (Xellia Pharmaceuticals ApS, Copenhagen, Denmark) at a total of 3.75 MIU (equivalent to 300 mg of CMS or 112.5 mg of CBA) administered four times a day at 6 h intervals. CMS was dissolved in 5 mL of normal saline and administered over 30 min through a jet nebulizer (Sileo 54, Macjin Medical, Seoul, Republic of Korea) connected to the ventilator circuit. Bronchoalveolar lavage fluid (BALF) was obtained by instilling 20 mL of normal saline into the right middle lobe or left lingular segmental bronchus using a bronchoscope, followed by immediate aspiration and collection into a syringe. Samples were collected immediately before the nebulization treatment and at 1, 3, and 5 h after the start of the treatment. Blood samples were collected before the nebulization treatment and at 1, 2, 3, and 5 h thereafter. Both BALF and blood samples were centrifuged at 3000× g for 10 min within 1 h of collection and the supernatant was isolated. Samples were then stored in a refrigerator at a temperature below −70 °C.\nA validated liquid chromatography–tandem mass spectrometry assay was used to determine colistin concentrations in BALF and plasma samples. The HPLC equipment consisted of an Agilent 1200 series modular system and an Atlantis C18 column (Company, Waters, Milford, MA, USA) (2.1 mm × 150 mm, 3.0 μm). Mobile phases A and B were water and acetonitrile, respectively. Both phases contained 0.1% formic acid. A gradient elution program was started at 10% B, increased to 35% for 1 min, maintained at this composition for 3.8 min, and returned to the initial composition for 5 min to re-equilibrate the column. Mass spectrometry (MS) was performed using a triple-quadruple mass spectrometer (SCIEX QTRAP5500, Applied Biosystems, Foster City, CA, USA) with an electrospray ionization (ESI) interface. The ESI source was set to positive ionization mode. The parent to product transition (m/z) was 578.483→101.071 for colistin A, 585.453→101.071 for colistin B, and 602.527→101.000 for polymyxin B. Data acquisition and processing were performed using the Analyst software (version 1.7.1; Applied Biosystems, Foster City, CA, USA). Stock solutions of colistin and IS were prepared in deionized water at concentrations of 10 mg/mL, and both were stored at −20 °C. Working solutions of colistin were prepared in deionized water (dilutions of 2, 5, 10, 50, 100, 500, and 1000 μg/mL). Calibration standards were prepared by spiking 247.5 μL of drug-free plasma with 2.5 μL of colistin working solution. Low (colistin A; 11.16 ng/mL, colistin B; 48.84 ng/mL), moderate (colistin A; 186 ng/mL, colistin B; 814 ng/mL), and high (colistin A; 1488 ng/mL, colistin B; 6512 ng/mL) concentrations of QC samples were prepared. Sample pretreatment involved a solid phase extraction. A 250 μL aliquot of plasma was pipetted into a 1.5 mL Eppendorf tube, to which 10 μL of IS (10 μg/mL, polymyxin B) and 740 μL of deionized water were added. This mixture was loaded into a cartridge that had been preconditioned twice with 1 mL of methanol and 1 mL of deionized water. After the plasma mixture was loaded, the cartridge was washed with 1 mL of deionized water. One milliliter of methanol including 0.1% formic acid was used for extraction. Extraction liquid was evaporated by vacuum concentrator (Speedvac, Thermo Fisher Scientific Inc., Waltham, MA, USA) at 45 °C for 2.5 h. Samples were reconstituted in 100 μL deionized water containing 0.1% formic acid. Subsequently, samples were vortexed for 5 min and centrifuged at 13,200 rpm for 10 min, and […] of supernatant was injected into the LC-MS system.\nColistin concentrations, encompassing both colistin A and colistin B, were determined and collectively referred to as “colistin”. The concentration of colistin in the epithelial lining fluid (ELF), termed CELF, was calculated using the formula CELF = CBAL (Ureaplasma/UreaBAL), where CBAL is the colistin concentration measured in BALF. […]"}, "[2]": {"conditions": "cited from earlier work; for Maximum ELF concentration, median (IQR): 2 MIU CMS", "method": "The observed median (IQR) peak colistin concentration was 21,950 (10,440–28,389) μg/L in the ELF, while that in plasma was 43.51 (14.23–85.78) μg/L. Boisson et al. reported that, regardless of concentration, a significant adsorption of CMS to the mini-BAL device was not observed in studies utilizing the mini-BAL device. They also noted that non-specific adsorption was not significant at a concentration of 6 mg/L. Consequently, it appears from our study that there was no significant adsorption of CMS [23]. […] These studies measured concentrations of both CMS and colistin in the ELF, assuming equal V/fm for CMS and colistin. In our study, the V/fm of colistin in plasma was estimated at 67.4 L, which is much greater than the 13.7 L reported in Boisson et al.. Gkoufa et al. fixed this distribution volume at 13.7 L based on Boisson et al.. The CL/fm of colistin ... || The PK/PD index for colistin is the area under the free colistin concentration-–time curve at steady state over 24 h divided by the pathogen minimum inhibitory concentration (fAUC/MIC). Since we were unable to obtain MIC values for A. baumannii, we evaluated the relationship between the PK and PD of colistin by comparing the fAUC of each patient in accordance with their clinical outcomes and microbiological outcomes. AUC was calculated by dividing the daily dose by patient, which was the individual post hoc Bayesian estimate of the developed PK model. The bioavailability of colistin ..."}},
  "note": "Like-named read-outs stand apart in the source and are kept apart here. Positions of bridges follow the written chain, without caps; N, C: chain ends. Non-standard residues stand in square brackets, D forms with d. Residues, ends and D or L forms follow the SMILES beside them. *: point of attachment. X1 = CC[C@H](C)CCCCC(=O)*; Dab = NCC[C@H](N)C(=O)O",
  "data": [
    {"smiles": "CC[C@H](C)CCCCC(=O)N[C@@H](CCN)C(=O)N[C@H](C(=O)N[C@@H](CCN)C(=O)N[C@H]1CCNC(=O)[C@H]([C@@H](C)O)NC(=O)[C@H](CCN)NC(=O)[C@H](CCN)NC(=O)[C@H](CC(C)C)NC(=O)[C@@H](CC(C)C)NC(=O)[C@H](CCN)NC1=O)[C@@H](C)O", "note": "[colistin] (X1-[Dab]T[Dab][Dab][Dab][dL]L[Dab][Dab]T; lactam 4-C)", "values": [
      {"measurement": "level at 1 h", "setting": "[1]; human, epithelial lining fluid, inhaled or intranasal, 1 h after start (time by position in Figure 1a), CMS 0.9375 MIU nebulized over 30 min, LC-MS/MS, 20 patients, read-out: Median colistin concentration in ELF", "result": 11800, "unit": "ng/mL"},
      {"measurement": "level at 3 h", "setting": "[1]; human, epithelial lining fluid, inhaled or intranasal, 3 h after start (time by position in Figure 1a), CMS 0.9375 MIU nebulized over 30 min, LC-MS/MS, 20 patients, read-out: Median colistin concentration in ELF", "result": 15400, "unit": "ng/mL"},
      {"measurement": "level at 5 h", "setting": "[1]; human, epithelial lining fluid, inhaled or intranasal, 5 h after start (time by position in Figure 1a), CMS 0.9375 MIU nebulized over 30 min, LC-MS/MS, 20 patients, read-out: Median colistin concentration in ELF", "result": 8160, "unit": "ng/mL"},
      {"measurement": "Kp at 1 h", "setting": "[1]; human, epithelial lining fluid, inhaled or intranasal, at 1 h, median concentrations, nebulized CMS 0.9375 MIU, read-out: Colistin concentration in ELF relative to plasma", "result": "~614"},
      {"measurement": "Kp at 3 h", "setting": "[1]; human, epithelial lining fluid, inhaled or intranasal, at 3 h, median concentrations, nebulized CMS 0.9375 MIU, read-out: Colistin concentration in ELF relative to plasma", "result": "~408"},
      {"measurement": "Kp at 5 h", "setting": "[1]; human, epithelial lining fluid, inhaled or intranasal, at 5 h, median concentrations, nebulized CMS 0.9375 MIU, read-out: Colistin concentration in ELF relative to plasma", "result": "~250"},
      {"measurement": "Observed peak colistin concentration in ELF, median (IQR)", "setting": "[1]; nebulized CMS 0.9375 MIU over 30 min, monitored over 5 h, 20 patients", "result": "21,950 (10,440–28,389) μg/L"},
      {"measurement": "Maximum ELF concentration, median (IQR)", "setting": "[2]; jet nebulizer", "result": "7.4 (6.2–10.3) mg/L"},
      {"measurement": "Maximum ELF concentration, median (IQR)", "setting": "[2]; vibrating mesh nebulizer", "result": "10.4 (4.7–22.6) mg/L"},
      {"measurement": "CL/fm of colistin in plasma", "setting": "[2]; Boisson et al.", "result": 53.1, "unit": "mL/min"},
      {"measurement": "V/fm of colistin in plasma", "setting": "[2]; Boisson et al.", "result": 13.7, "unit": "L"},
      {"measurement": "V/fm of colistin in the ELF", "setting": "[2]; Boisson et al.", "result": 1.2, "unit": "mL"},
      {"measurement": "CL/fm of colistin in plasma", "setting": "[2]; Gkoufa et al.", "result": 128, "unit": "mL/min"},
      {"measurement": "V/fm of colistin in the ELF", "setting": "[2]; Gkoufa et al.", "result": 14.5, "unit": "mL"},
      {"measurement": "Bioavailability of colistin", "setting": "[2]; assumed from the literature to calculate the PK/PD index", "result": 9, "unit": "%"},
      {"measurement": "Intercompartmental CL/fm", "setting": "[2]; between ELF and plasma, Gkoufa et al.", "result": 0.372, "unit": "mL/min"}
    ]}
  ]
}
